We go through five compounds from US10087229B2, “Peptide compound” (TAKEDA PHARMACEUTICAL COMPANY LIMITED, priority 2013, dated 2018).

What is called pEC50 is −log10 of the EC50, conventionally taken in molar units.

The test system of one experiment is male C57BL/6J mouse. As to the kind of experiment: 2-days continuous subcutaneous administration test (feeding suppressive activity). Format: in vivo. The settings on record: 10 nmol/kg/day, subcutaneous Alzet pump, 2-days cumulative food consumption, control (solvent alone) = 0%. A digest of the protocol: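 Male C57BL/6J mice, 8-9 weeks, given test compound at 10 nmol/kg/day by subcutaneously implanted osmotic pump (50% DMSO vehicle), housed singly with free food access. Cumulative 2-day food consumption measured; suppression rate (%) calculated relative to vehicle-only controls.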

In experiment [1] the test system is Diet-induced obesity (DIO) male C57BL/6J mice. In words: 2-weeks continuous subcutaneous administration study in DIO mice (anti-obesity activity). Format: in vivo, mouse. The settings on record: 1 nmol/kg/day, subcutaneous Alzet pump, 2 weeks after start of administration; rate of weight loss, control group regarded as 0%. As for the experimental part:
2-Weeks Continuous Subcutaneous Administration Study in DIO Mice
The anti-obesity activity of a test compound was examined by the method described below.
Diet-induced obesity (DIO) mice were prepared by feeding male C57BL/6J mice with high-fat diet (D12451: Research Diets, Inc.). The test compound was dissolved in a solvent (50% DMSO) so that sustained release would occur at 1 nmol/kg/day, and the solution was filled in the Alzet Pump (DURECT Corporation, model: 1002). The pump thus filled with the solution to be administered was immersed in physiological saline for priming, and then used. The pump was embedded by the following method. Each male DIO-C57BL/6J mouse at 35-37 weeks of age (20-26° C., allowed to take food and water ad libitum; 12-hour bright-12-hour dark cycle) was anesthetized; the skin in the upper back thereof was incised, and the above-mentioned pump was embedded subcutaneously; the incision was sutured. After weighing, this mouse was returned to the rearing cage (reared alone), and given previously weighed food; the body weight was measured every 1 to 3 days after the start of administration. The anti-obesity activity of each test compound was evaluated on the basis of the rate of weight loss 2 weeks after the start of administration, with the rate of weight loss in a control group receiving administration of the solvent alone regarded as 0%.

In a further experiment the target is T1, human glucagon R (Homo sapiens, UniProt P47871).
T1 construct: expressed in transfected cells; host or cells: CHO-K1 (CRE-LUC/CHO-K1 reporter cells)
T1 sequence (P47871 26-477): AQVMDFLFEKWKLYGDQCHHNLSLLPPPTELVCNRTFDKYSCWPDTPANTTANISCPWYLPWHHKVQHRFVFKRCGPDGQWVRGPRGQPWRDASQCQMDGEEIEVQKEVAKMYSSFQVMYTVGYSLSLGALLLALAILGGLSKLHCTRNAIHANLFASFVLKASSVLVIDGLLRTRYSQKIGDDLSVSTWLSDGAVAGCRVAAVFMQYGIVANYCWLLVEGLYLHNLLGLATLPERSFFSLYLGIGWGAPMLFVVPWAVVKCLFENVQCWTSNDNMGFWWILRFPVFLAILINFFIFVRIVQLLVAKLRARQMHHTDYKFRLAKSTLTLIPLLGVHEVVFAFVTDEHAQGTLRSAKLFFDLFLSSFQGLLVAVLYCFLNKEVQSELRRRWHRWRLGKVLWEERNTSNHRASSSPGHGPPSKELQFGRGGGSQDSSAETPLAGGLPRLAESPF
As to the kind of experiment: Reporter assay of human glucagon R agonist activity, rise in intracellular cAMP as index (hGlucagonR/CRE-LUC/CHO-K1 cells). Format: cell-based. The settings on record: luciferase reporter; 10 nM glucagon = 100%, DMSO = 0%; 4 hours incubation; read-out: Agonist activity (EC50) hGCGR. The text has this:
Evaluation of agonist activity against human GIPR, human GLP-1R and human glucagon R using rise in intracellular cAMP concentration as index
(2) Construction of Reporter Plasmid-Expressing Cell
The luciferase reporter gene having an upstream cAMP response sequence was introduced to CHO-K1 cells to construct CRE-LUC/CHO-K1 cells.
(7) Construction of Expression Plasmid for the Human Glucagon R Gene
The human glucagon R gene having a sequence identical to the sequence of GenBank Accession No. NM_000160 was cloned into pMSRα-neo vector to prepare hGlucagonR/pMSRα-neo.
(8) Introduction of the Human Glucagon R Gene into CRE-LUC/CHO-K1 Cell and Obtainment of Expressing Cell […]
The hGIPR/CRE-LUC/CHO-K1 cells were inoculated at a cell density of 25 μL/well (5×10^4 cells/well) to a 384-well white plate (Corning), and cultured overnight in Ham F12 medium containing 10% fetal bovine serum, 100 U/mL penicillin and 100 μg/mL streptomycin in a CO2 incubator of 37° C. […] After 30 minutes, the luciferase activity was measured using a plate reader Envision (PerkinElmer). […] The GIPR agonist activity was calculated with a rise in intracellular cAMP concentration as an index.
The glucagon R agonist activity was assayed in the same way as above using the hGlucagonR/CRE-LUC/CHO-K1 cells. […] The glucagon agonist activity was calculated with a rise in intracellular cAMP concentration as an index.
(In a reporter assay the amount or activity of a reporter protein is the signal.)

Structures are written as SMILES. pEC50: −log10 of the molar value. Square brackets hold non-standard residues; d marks the D form. Peptide text beside a SMILES is read from it. NMeY = CN[C@@H](Cc1ccc(O)cc1)C(=O)O; αMeF = C[C@](N)(Cc1ccccc1)C(=O)O; Aib = CC(C)(N)C(=O)O A value given as a limit tells only on which side of the number the result lay.

Turning to `CC[C@H](C)[C@H](NC(=O)C(C)(C)NC(=O)[C@H](Cc1ccc(O)cc1)NC(=O)[C@H](CC(=O)O)NC(=O)[C@H](CO)NC(=O)[C@@H](NC(=O)[C@](C)(Cc1ccccc1)NC(=O)[C@@H](NC(=O)CNC(=O)[C@H](CCC(=O)O)NC(=O)C(C)(C)NC(=O)[C@@H](N)Cc1ccc(O)cc1)[C@@H](C)O)[C@@H](C)O)C(=O)NC(C)(C)C(=O)N[C@@H](CC(C)C)C(=O)N[C@@H](CC(=O)O)C(=O)N[C@@H](CCCCN)C(=O)N[C@@H](CCC(N)=O)C(=O)N[C@@H](C)C(=O)N[C@@H](CCC(N)=O)C(=O)N[C@@H](C)C(=O)N[C@@H](CCC(=O)O)C(=O)N[C@@H](Cc1ccccc1)C(=O)N[C@H](C(=O)N[C@@H](CCCCN)C(=O)N[C@@H](Cc1c[nH]c2ccccc12)C(=O)N[C@@H](CC(C)C)C(=O)N[C@@H](CC(C)C)C(=O)N[C@@H](CCCCN)C(=O)NCC(=O)NCC(=O)N1CCC[C@H]1C(=O)N[C@@H](CO)C(=O)N[C@@H](CO)C(=O)NCC(=O)N[C@@H](C)C(=O)N1CCC[C@H]1C(=O)N1CCC[C@H]1C(=O)N1CCC[C@H]1C(=O)N[C@@H](CO)C(=O)N[C@@H](CCCCN)C(N)=O)C(C)C` [Example 2] (H-Y[Aib]EGT[αMeF]TSDY[Aib]I[Aib]LDKQAQAEFVKWLLKGGPSSGAPPPSK-NH2), the “Food intake suppression (%)” value in the experiment on male C57BL/6J mouse is recorded as 64.80%. Also, in experiment [1], the “Change in body weight” value is −16.3.
With `CC[C@H](C)[C@H](NC(=O)C(C)(C)NC(=O)[C@H](Cc1ccc(O)cc1)NC(=O)[C@H](CC(=O)O)NC(=O)[C@H](CO)NC(=O)[C@@H](NC(=O)[C@](C)(Cc1ccccc1)NC(=O)[C@@H](NC(=O)CNC(=O)[C@H](CCC(=O)O)NC(=O)C(C)(C)NC(=O)[C@H](Cc1ccc(O)cc1)NC)[C@@H](C)O)[C@@H](C)O)C(=O)NC(C)(C)C(=O)N[C@@H](CC(C)C)C(=O)N[C@@H](CC(=O)O)C(=O)N[C@@H](CCCCN)C(=O)N[C@@H](CCC(N)=O)C(=O)N[C@@H](C)C(=O)N[C@@H](CCC(N)=O)C(=O)N[C@@H](C)C(=O)N[C@@H](CCC(=O)O)C(=O)N[C@@H](Cc1ccccc1)C(=O)N[C@H](C(=O)N[C@@H](CCCCN)C(=O)N[C@@H](Cc1c[nH]c2ccccc12)C(=O)N[C@@H](CC(C)C)C(=O)N[C@@H](CC(C)C)C(=O)N[C@@H](CCCCN)C(=O)NCC(=O)NCC(=O)N1CCC[C@H]1C(=O)N[C@@H](CO)C(=O)N[C@@H](CO)C(=O)NCC(=O)N[C@@H](C)C(=O)N1CCC[C@H]1C(=O)N1CCC[C@H]1C(=O)N1CCC[C@H]1C(=O)N[C@@H](CO)C(=O)N[C@@H](CCCCN)C(N)=O)C(C)C` [Example 23] (H-[NMeY][Aib]EGT[αMeF]TSDY[Aib]I[Aib]LDKQAQAEFVKWLLKGGPSSGAPPPSK-NH2), the “Food intake suppression (%)” value in the experiment with male C57BL/6J mouse stood at 52.62%. Besides, the negative logarithm of the EC50 (pEC50) on human glucagon R is below 6.00.
For `CC(C)C[C@H](NC(=O)[C@H](CC(C)C)NC(=O)[C@H](Cc1c[nH]c2ccccc12)NC(=O)[C@H](CCCCN)NC(=O)[C@@H](NC(=O)[C@H](Cc1ccccc1)NC(=O)[C@H](CCC(=O)O)NC(=O)[C@H](C)NC(=O)[C@H](CCC(N)=O)NC(=O)[C@H](C)NC(=O)[C@H](CCC(N)=O)NC(=O)[C@H](CCCCN)NC(=O)[C@H](CC(=O)O)NC(=O)[C@H](CC(C)C)NC(=O)[C@H](Cc1ccc(O)cc1)NC(=O)[C@H](CCCCN)NC(=O)C(C)(C)NC(=O)[C@H](Cc1ccc(O)cc1)NC(=O)[C@H](CC(=O)O)NC(=O)[C@H](CO)NC(=O)[C@@H](NC(=O)[C@](C)(Cc1ccccc1)NC(=O)[C@@H](NC(=O)CNC(=O)[C@H](CCC(=O)O)NC(=O)C(C)(C)NC(=O)[C@@H](N)Cc1ccc(O)cc1)[C@@H](C)O)[C@@H](C)O)C(C)C)C(=O)N[C@@H](CCCCN)C(=O)NCC(=O)NCC(=O)N1CCC[C@H]1C(=O)N[C@@H](CO)C(=O)N[C@@H](CO)C(=O)NCC(=O)N[C@@H](C)C(=O)N1CCC[C@H]1C(=O)N1CCC[C@H]1C(=O)N1CCC[C@H]1C(=O)N[C@@H](CO)C(=O)N[C@@H](CCCCN)C(N)=O` [Example 24] (H-Y[Aib]EGT[αMeF]TSDY[Aib]KYLDKQAQAEFVKWLLKGGPSSGAPPPSK-NH2), the “Food intake suppression (%)” value in the experiment with male C57BL/6J mouse is reported as 54.18%. For the same compound, the “Change in body weight” value in experiment [1] is −11.1.
On to `CC(C)C[C@H](NC(=O)[C@H](CC(C)C)NC(=O)[C@H](Cc1c[nH]c2ccccc12)NC(=O)[C@H](CCCCN)NC(=O)[C@@H](NC(=O)[C@H](Cc1ccccc1)NC(=O)[C@H](CCC(=O)O)NC(=O)[C@H](CCC(N)=O)NC(=O)[C@H](CCC(N)=O)NC(=O)[C@H](C)NC(=O)[C@H](CCC(N)=O)NC(=O)[C@H](CCCCN)NC(=O)[C@H](CC(=O)O)NC(=O)[C@H](CC(C)C)NC(=O)[C@H](Cc1ccc(O)cc1)NC(=O)[C@H](CCCCN)NC(=O)C(C)(C)NC(=O)[C@H](Cc1ccc(O)cc1)NC(=O)[C@H](CC(=O)O)NC(=O)[C@H](CO)NC(=O)[C@@H](NC(=O)[C@](C)(Cc1ccccc1)NC(=O)[C@@H](NC(=O)CNC(=O)[C@H](CCC(=O)O)NC(=O)C(C)(C)NC(=O)[C@@H](N)Cc1ccc(O)cc1)[C@@H](C)O)[C@@H](C)O)C(C)C)C(=O)N[C@@H](CCCCN)C(=O)NCC(=O)NCC(=O)N1CCC[C@H]1C(=O)N[C@@H](CO)C(=O)N[C@@H](CO)C(=O)NCC(=O)N[C@@H](C)C(=O)N1CCC[C@H]1C(=O)N1CCC[C@H]1C(=O)N1CCC[C@H]1C(=O)N[C@@H](CO)C(=O)N[C@@H](CCCCN)C(N)=O` [Example 25] (H-Y[Aib]EGT[αMeF]TSDY[Aib]KYLDKQAQQEFVKWLLKGGPSSGAPPPSK-NH2), for which, in the experiment on male C57BL/6J mouse, the “Food intake suppression (%)” value was 53.12%. Also, the “Change in body weight” value in experiment [1] is reported as −11.2.
For `CC(C)C[C@H](NC(=O)[C@H](CC(C)C)NC(=O)[C@H](Cc1c[nH]c2ccccc12)NC(=O)[C@H](CCCCN)NC(=O)[C@@H](NC(=O)[C@H](Cc1ccccc1)NC(=O)[C@H](CCC(=O)O)NC(=O)[C@H](CCC(N)=O)NC(=O)[C@H](CCC(N)=O)NC(=O)[C@H](C)NC(=O)[C@H](CCC(N)=O)NC(=O)[C@H](CCCCN)NC(=O)[C@H](CC(=O)O)NC(=O)[C@H](CC(C)C)NC(=O)[C@H](Cc1ccc(O)cc1)NC(=O)[C@H](CCCCN)NC(=O)C(C)(C)NC(=O)[C@H](Cc1ccc(O)cc1)NC(=O)[C@H](CC(=O)O)NC(=O)[C@H](CO)NC(=O)[C@@H](NC(=O)[C@](C)(Cc1ccccc1)NC(=O)[C@@H](NC(=O)CNC(=O)[C@H](CCC(=O)O)NC(=O)C(C)(C)NC(=O)[C@@H](N)Cc1ccc(O)cc1)[C@@H](C)O)[C@@H](C)O)C(C)C)C(=O)N[C@@H](CCCCN)C(=O)NCC(=O)NCC(=O)N1CCC[C@H]1C(=O)N[C@@H](CO)C(=O)N[C@@H](CO)C(=O)NCC(=O)N[C@@H](C)C(=O)N1CCC[C@H]1C(=O)N1CCC[C@H]1C(=O)N1CCC[C@H]1C(=O)N[C@@H](CO)C(N)=O` [Example 26] (H-Y[Aib]EGT[αMeF]TSDY[Aib]KYLDKQAQQEFVKWLLKGGPSSGAPPPS-NH2) the same measures were 53.06% and −16.2.
